Reference: PMC11406361, “Several orphan solute carriers functionally identified as organic cation transporters: Substrates specificity compared with known cation transporters” (The Journal of Biological Chemistry, 2024)
Read-outs that look alike come from different tables or passages of the source. Peptide text beside a SMILES is read from it.

Biological target: SLC35G3 (Homo sapiens, UniProt Q8N808)
Assay: Uptake ratio screen, SLC35G3-overexpressing HEK293 over empty vector cells
Assay type: cell-based
Set-up: by amplifying the entire gene-of-interest within the HEK293 genome via a long-range PCR
[1] = 2.5 μM substrate, 2 min, HEK293

Chain of SLC35G3 (Q8N808 whole entry): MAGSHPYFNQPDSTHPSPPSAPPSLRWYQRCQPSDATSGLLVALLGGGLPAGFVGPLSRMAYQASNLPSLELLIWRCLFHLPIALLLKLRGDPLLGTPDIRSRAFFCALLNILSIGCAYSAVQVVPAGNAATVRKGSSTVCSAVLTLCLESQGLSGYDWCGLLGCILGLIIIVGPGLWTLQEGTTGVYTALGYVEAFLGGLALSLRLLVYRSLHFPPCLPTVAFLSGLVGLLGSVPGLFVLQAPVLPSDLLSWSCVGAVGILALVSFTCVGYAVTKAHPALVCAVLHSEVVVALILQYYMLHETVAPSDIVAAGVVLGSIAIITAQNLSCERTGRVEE

| Structure (SMILES) | Uptake data for SLC35G3, mean value (fold-increase over empty vector control) [1] | Uptake data for SLC35G3, mean value (fold-increase over empty vector control) |
| --- | --- | --- |
| CCOC(=O)[C@]1(c2ccccc2)CCC=C[C@H]1NC [Nortilidine] | 2.87 | – |
| C#CCN[C@@H]1CCc2ccccc21 [Rasagiline] | 1.90 | – |
| C[N+](C)(C)CC(=O)O [Betaine] | 0.84 | – |
| N[C@@H]1C[C@H]1c1ccccc1 (racemic) [Tranylcypromine] | 2.56 | – |
| COc1ccc2c3c1O[C@H]1C(=O)CC[C@H]4[C@@H](C2)N(C)CC[C@]314 [Hydrocodone] | 1.71 | – |
| CNCCCN1c2ccccc2CCc2ccccc21 [Desipramine] | 1.31 | – |
| CNCC(c1ccc(OC)cc1)C1(O)CCCCC1 (stereo not shown) [N-Desmethylvenlafaxine] | 1.20 | – |
| C[C@H]1COc2c(N3CCN(C)CC3)c(F)cc3c(=O)c(C(=O)O)cn1c23 [Levofloxacin] | 1.05 | – |
| C[C@H](N)[C@@H](O)c1ccccc1 [Cathine ((+)-Norpseudoephedrine), (+)-Norpseudoephedrine] | – | 1.21 |
| CNCC[C@@H](Oc1ccccc1C)c1ccccc1 [Atomoxetine] | 1.26 | – |
| COc1cc2nc(N3CCN(C(=O)C4CCCO4)CC3)nc(N)c2cc1OC (stereo not shown) [Terazosin] | 1.49 | – |
| C[C@@H](O)[C@H]1C(=O)N2C(C(=O)O)=C(S[C@@H]3CN[C@H](C(=O)N(C)C)C3)[C@H](C)[C@H]12 [Meropenem] | 1.27 | – |
| C=CCN1CC[C@]23c4c5ccc(O)c4O[C@H]2C(=O)CC[C@@]3(O)[C@H]1C5 [Naloxone] | 2.01 | – |
| CN(C)CCOC(C)(c1ccccc1)c1ccccn1 (stereo not shown) [Doxylamine] | 1.10 | – |
| CNCC[C@H](Oc1cccc2ccccc12)c1cccs1 [Duloxetine] | – | 1.26 |
| C=CCN1C[C@H](C(=O)N(CCCN(C)C)C(=O)NCC)C[C@@H]2c3cccc4[nH]cc(c34)C[C@H]21 [Cabergoline] | 1.49 | – |
| CC(CCc1ccc(O)cc1)NCCc1ccc(O)c(O)c1 (stereo not shown) [Dobutamine] | 1.58 | – |
| CC(CN(C)C)CN1c2ccccc2CCc2ccccc21 (stereo not shown) [Trimipramine] | 1.47 | – |
| NC(=O)C1(N2CCCCC2)CCN(CCCC(=O)c2ccc(F)cc2)CC1 [Pipamperone] | 1.33 | – |
| CCN(CC)CCNC(=O)c1cc(Cl)c(N)cc1OC [Metoclopramide] | 1.44 | – |
| CC(C)NCC(O)COc1cccc2ccccc12 (stereo not shown) [Propranolol] | 1.27 | – |
| N[C@@H]1CON=C1O [Cycloserine (D-), Cycloserine] | 0.93 | – |
| CCCN(CCC)CCc1cccc2c1CC(=O)N2 [Ropinirole] | 1.37 | – |
| COc1ccc(CN(CCN(C)C)c2ccccn2)cc1 [Pyrilamine] | 1.74 | – |
| CN(C)CCC=C1c2ccccc2CCc2ccccc21 [Amitriptyline] | 1.47 | – |

| Structure (SMILES) | Uptake data for SLC35G3, mean value (fold-increase over empty vector control) [1] | Uptake data for SLC35G3, mean value (fold-increase over empty vector control) |
| --- | --- | --- |
| CNC[C@H](O)c1cccc(O)c1 [Phenylephrine] | 1.10 | – |
| C[N+]1(CC2CC2)CC[C@]23c4c5ccc(O)c4O[C@H]2C(=O)CC[C@@]3(O)[C@H]1C5 (stereo partly shown) [Methylnaltrexon] | 1.36 | – |
| COc1ccc(OC)c(C(O)CNC(=O)CN)c1 (stereo not shown) [Midodrine] | 1.33 | – |
| OCCOCCN1CCN(C2=Nc3ccccc3Sc3ccccc32)CC1 [Quetiapine] | 1.37 | – |
| CC(NC(C)(C)C)C(=O)c1cccc(Cl)c1 (stereo not shown) [Bupropion] | 1.29 | – |
| CC(C)(C)c1ccc(C(O)CCCN2CCC(C(O)(c3ccccc3)c3ccccc3)CC2)cc1 (stereo not shown) [Terfenadine] | 1.28 | – |
| COCCn1c2c([n+](Cc3cnccn3)c1C)C(=O)c1ccccc1C2=O [YM155] | 1.11 | – |
| Cc1cccc(C)c1NC(=O)C1CCCCN1C (stereo not shown) [Mepivacaine] | 2.30 | – |
| O=C1c2cccc3c2[C@H](CCC3)CN1[C@@H]1CN2CCC1CC2 [Palonosetron] | 1.36 | – |
| COc1ccc(C(CN(C)C)C2(O)CCCCC2)cc1 (stereo not shown) [Venlafaxine] | 1.60 | – |
| CNC1(c2ccccc2Cl)CCCCC1=O (stereo not shown) [Ketamine] | – | 1.28 |
| CC(C)NCC(O)COc1ccc(COCCOC(C)C)cc1 (stereo not shown) [Bisoprolol] | 1.24 | – |
| Fc1ccc([C@@H]2CCNC[C@H]2COc2ccc3c(c2)OCO3)cc1 [Paroxetin] | 1.30 | – |
| COCCc1ccc(OCC(O)CNC(C)C)cc1 (stereo not shown) [Metoprolol] | 1.52 | – |
| COCCOC(=O)C1=C(C)NC(C)=C(C(=O)OC(C)C)C1c1cccc([N+](=O)[O-])c1 (stereo not shown) [Nimodipine] | 1.26 | – |
| CCCCN1CCCCC1C(=O)Nc1c(C)cccc1C (stereo not shown) [Bupivacaine] | 2.44 | – |
| COC(=O)[C@H](Cc1ccccc1)NC(=O)[C@@H](N)CC(=O)O [Aspartame] (H-Asp-Phe-OMe) | 0.92 | – |
| O=C1CCc2ccc(OCCCCN3CCN(c4cccc(Cl)c4Cl)CC3)cc2N1 [Aripiprazole] | 1.22 | – |
| C=C1CC[C@@]2(O)[C@H]3Cc4ccc(O)c5c4[C@@]2(CCN3CC2CC2)[C@H]1O5 [Nalmefen] | 1.99 | – |
| CN1CCN(C2=Nc3cc(Cl)ccc3Nc3ccccc32)CC1 [Clozapine] | 1.44 | – |
| CN[C@@H](C)[C@H](O)c1ccccc1 [Ephedrine] | 1.59 | – |
| NC1Cc2cc3c(cc2C1)OCO3 [MDAI, 5,6-Methylenedioxy-2-aminoindane] | 1.71 | – |
| O=C1CC2(CCCC2)CC(=O)N1CCCCN1CCN(c2ncccn2)CC1 [Buspirone] | 1.72 | – |
| CCN1CCCC1CNC(=O)c1cc(S(=O)(=O)CC)c(N)cc1OC (stereo not shown) [Amisulpride] | 1.53 | – |
| COc1c(N2C[C@@H]3CCCN[C@@H]3C2)c(F)cc2c(=O)c(C(=O)O)cn(C3CC3)c12 [Moxifloxacin] | 1.34 | – |

| Structure (SMILES) | Uptake data for SLC35G3, mean value (fold-increase over empty vector control) [1] | Uptake data for SLC35G3, mean value (fold-increase over empty vector control) |
| --- | --- | --- |
| CCOc1ccccc1OCCN[C@H](C)Cc1ccc(OC)c(S(N)(=O)=O)c1 [Tamsulosin] | 1.39 | – |
| O=C(CCCN1CCC(O)(c2ccc(Cl)cc2)CC1)c1ccc(F)cc1 [Haloperidol] | 1.47 | – |
| COc1cc(Cc2cnc(N)nc2N)cc(OC)c1OC [Trimethoprim] | 1.24 | – |
| CN(C)CCc1c[nH]c2ccc(C[C@H]3COC(=O)N3)cc12 [Zolmitriptan] | 1.27 | – |
| Cc1nc2n(c(=O)c1CCN1CCC(c3noc4cc(F)ccc34)CC1)CCCC2 [Risperidone] | 1.41 | – |
| OC(CCN1CCCCC1)(c1ccccc1)C1CC2C=CC1C2 (stereo not shown) [Biperiden] | 1.50 | – |
| NCCc1ccc(O)cc1 [Tyramine] | 1.61 | – |
| CC12CC3CC(C)(C1)CC(N)(C3)C2 [Memantine] | 1.19 | – |
| C[C@H]1c2cccc(O)c2C(=O)C2=C(O)[C@]3(O)C(=O)C(C(N)=O)=C(O)[C@@H](N(C)C)[C@@H]3[C@@H](O)[C@@H]21 [Doxycycline] | 1.34 | – |
| COc1cc(CCN)cc(OC)c1OC [Mescaline] | – | 1.34 |
| CCN(C)C(=O)Oc1cccc([C@H](C)N(C)C)c1 [Rivastigmine] | 1.65 | – |
| CN[C@@H]1CCc2[nH]c3ccc(C(N)=O)cc3c2C1 [Frovatriptan (R-), Frovatriptan] | 1.06 | – |
| N[C@@H]1CON=C1O [Cycloserine (L-), Cycloserine] | 1.11 | – |
| O=C(O[C@H]1CN2CCC1CC2)N1CCc2ccccc2[C@@H]1c1ccccc1 [Solifenacin] | 1.26 | – |
| COc1ccccc1N1CCN(CCCNc2cc(=O)n(C)c(=O)n2C)CC1 [Urapidil] | 1.37 | – |
| NCC1(CC(=O)O)CCCCC1 [Gabapentin] | 0.90 | – |
| COc1ccc2c(c1)N(C[C@H](C)CN(C)C)c1ccccc1S2 [Levomepromazine] | 1.30 | – |
| CC[C@@H](CO)NCCN[C@@H](CC)CO [Ethambutol] | 0.99 | – |
| COc1ccc2c3c1O[C@H]1C[C@@H](O)C=C[C@@]31CCN(C)C2 [Galantamine] | 1.57 | – |
| CNCC1CCCCC1(O)c1cccc(OC)c1 (stereo not shown) [N-Desmethyltramadol] | 1.38 | – |
| CCN(CC)C(=O)C1(c2ccccc2)CC1CN (stereo not shown) [Milnacipran] | 1.31 | – |
| CCCCNc1ccc(C(=O)OCCN(C)C)cc1 [Tetracaine] | 1.54 | – |
| CC(Cc1ccc(O)cc1)NCC(O)c1cc(O)cc(O)c1 (stereo not shown) [Fenoterol] | 1.19 | – |
